Patent US20160270400A1, “Liposome-Attractant Formulations” (priority 2013, published 2016)
Where “and” joins values, the source holds several entries; their conditions need not be identical. Equal entries are not always repeated.

Columns and labels:
[1] = Abamectin or liposomal abamectin applied to soil prior to planting: gall formation, root necrosis, root length; type: in vivo
Protocol: Abamectin at 5μg or 1μg was directly applied to soil prior to planting. Alternatively abamectin was loaded into liposomes at either 5μg or 1 μg and applied to soil prior to planting. Gall formation was detected. […] Therefore, liposomal abamectin formulations enhance root length as compared to non-liposomal abamectin formulations.

[2] = test system: nematode; details: comparison figure; cited from earlier work
[3] = test system: free living nematodes in soil; details: 24 hour exposure; cited from earlier work
[4] = test system: citrus nematode; details: 0.5 hour exposure, same concentration; cited from earlier work
[5] = test system: Root-Knot larvae (J2); experiment: Effect of nematicides (Oxamyl, Thiodicarb) on Root-Knot larvae (J2) in vitro; parameters: species or system M. incognita; details: for Root-Knot larvae (J2) Alive, non-mobile: alive larvae given as non-mobile; for Root-Knot larvae (J2) Alive, non-mobile / Root-Knot larvae (J2) Dead / Root-Knot larvae (J2) Alive: 2 days; for Root-Knot larvae (J2) Dead / Root-Knot larvae (J2) Alive: room temperature, one replicate per line
Protocol: M. incognita eggs collected from tomato cultures by NaOC1 extraction (Hussey and Barker, 1973). Briefly, six to twelve week old infected tomato roots were cut into 1-2 segment. Root segments were shacked vigorously in 200 ml of a 0.5% Na O Cl solution for 4 min. Then, the Na O Cl solution was passed quickly through a 200-mesh (75-μm), nested over a 500-mesh sieve to collect freed eggs. The a 500-mesh sieve with eggs was quickly placed under a stream of cold water to remove residual Na O cl and rinsed several times. About 50 ml queous suspension of eggs was collected and number of eggs per unit volume will be counted. The egg suspension was allowed to sit at room temperature for 4 days. The hatching juveniles were collected and used in the subsequent experiments.
Determine the efficient concentration of nematicides (Oxamyl and Thidiocarb) that kill or suppress Root-Knot Larvae.
M. incognita eggs collected from tomato cultures by NaOC1 extraction (Hussey & Barker, Plant Disease Reporter. 57:1025-1028 (1973)). Egg suspension was incubated at room temperature until larvae were hatched (4-5 days). The juveniles (J2) were counted and evaluated for activity/mobility for the duration of the study. Four different concentrations of both nematicides (Oxamyl and Thiodicarb) were used to assess their efficacy in killing the nematodes. These were untreated control, 200 ug, 1 mg, 2 mg, and 10 mg. Three replicates of the each concentration were mixed with J2 suspensions and incubated at room temperature for 2 days.
We studied the efficiency of Oxamyl; 200 ug/ml and 100 ug/ml in suppression of J2. […] We used 100 ug of Oxamyl in subsequent studies with liposomes.

[6] = test system: root-knot nematodes; experiment: Nematicidal activity of Oxamyl-liposome formulation on root-knot nematodes; type: in vivo, M. incognita; details: where oxamyl was added (oxamyl-liposome test, FIG. 1)
Protocol: Liposomes having an aqueous core and phospholipid bilayers were prepared using the thin-film dehydration-rehydration method obtaining, multilamilar vesicles (MLVs) and small unilamellar vesicles (SUVs) (Bangham et al., J. Mol. Biol. 13:238-252 (1965); Gosangari & Watkin, Pharm Dev Technol. 17:383-8 (2012)). Using thin-film hydration method, briefly, required amounts of lipids [1,2-Dipalmitoyl-sn-glycero-3-phosphocholine (DPPC) liposomes and 1, 2-distearoyl-snglycero- 3-phosphocholine (DSPC)] were dissolved in chloroform, and a thin film will be formed on the inner side of the round bottom flask, by evaporating the solvent under vacuum using a rotavapor. The lipid film formed was stored overnight in vacuum desiccator to eliminate traces of chloroform. The film was then hydrated at 58° C., above the Tc of DSPC, using 10 mL of phosphate-buffered saline (PBS, 20 mM […], 150 mM NaCl, pH 7.0) containing different concentration of Oxamyl. […] The unencapsulated oxamyl was then separated using Sephadex G-50 macrospin columns and the encapsulation efficiency was calculated spectrophotometrically at 280 nm. […]
M. incognita eggs collected from tomato cultures by NaOC1 extraction (Hussey & Barker, Plant Disease Reporter. 57:1025-1028 (1973)). […] The juveniles (J2) were counted and evaluated for activity/mobility for the duration of the study. […]

## abamectin [non-liposomal abamectin]
[1]; 1 μg applied to soil prior to planting, FIG. 3
  gall formation: most gall formulation
[1]; 5 μg applied to soil prior to planting, FIG. 4
  root necrosis: most root necrosis
[2]
  amount of abamectin needed to treat nematodes when not encapsulated by liposomes: about 2982 mg/acre

## BrCCBr [EDB, ethylene dibromide]
[3]
  population killed: 75%
[4]
  survival: did not survive

## CNC(=O)O/N=C(\SC)C(=O)N(C)C [Oxamyl (Vydate), Methyl N′N′-dimethyl-N-[(methylcarbamoyl)oxy]-1-thiooxamimidate]
[5]; 200 ug
  Root-Knot larvae (J2) Alive, non-mobile: 60 non-mobile and 58 non-mobile and 50 non-mobile
  Root-Knot larvae (J2) Dead: 40 and 42 and 50
[5]; 1 mg
  Root-Knot larvae (J2) Alive: 0
  Root-Knot larvae (J2) Dead: 100
[5]; 2 mg
  Root-Knot larvae (J2) Alive: 0
  Root-Knot larvae (J2) Dead: 100
[5]; 10 mg
  Root-Knot larvae (J2) Alive: 0
  Root-Knot larvae (J2) Dead: 100
[5]; Meloidogyne incognita, 100 ug/ml
  mortality at 100 µg/mL: 100%
[5]; Meloidogyne incognita, 200 ug/ml
  mortality at 200 µg/mL: 100%
[6]
  state of larvae: dead or paralyzed

## CS/C(C)=N\OC(=O)N(C)SN(C)C(=O)O/N=C(\C)SC [Larvin (Thiodicarb), Thiodicarb]
[5]; 200 ug
  Root-Knot larvae (J2) Alive: 76 and 86 and 89
  Root-Knot larvae (J2) Dead: 23 and 14 and 11
[5]; 1 mg
  Root-Knot larvae (J2) Alive: 75 and 82 and 63
  Root-Knot larvae (J2) Dead: 25 and 18 and 37
[5]; 2 mg
  Root-Knot larvae (J2) Alive: 70 and 85 and 65
  Root-Knot larvae (J2) Dead: 30 and 15 and 35
[5]; 10 mg
  Root-Knot larvae (J2) Alive, non-mobile: 70 non-mobile and 80 non-mobile
  Root-Knot larvae (J2) Dead: 30 (2×) and 20
[5]; compared with Oxamyl, reason for elimination
  concentration required to kill Root-Knot (J2): required higher concentration to kill Root-Knot (J2)
